Experimental data from patent US5922891A, “2-substituted 1,8-dihydroxy-9(10H)-anthracenone pharmaceuticals” (priority 1997, dated 1999).
Where two headings read alike, the source gives them in different places.

Columns and labels:
HaCaT cells [1] = assay: Antiproliferative activity against HaCaT cells (human keratinocyte cell line); type: cell-based; conditions: 48 h, read-out: AA IC50 (antiproliferative activity)
[2] = Deoxyribose degradation as a measure of hydroxyl radical formation; type: biochemical; conditions: 75 μM test compound; controls < 0.1
HaCaT cells [3] = conditions: cited from earlier work
[4] = system: LTB4 production in human neutrophils; conditions: depending on cell density, read-out: IC50, inhibition of LTB4 production, human neutrophils; cited from earlier work
[5] = cited from earlier work
[6] = psoriasis therapy; cited from earlier work
5-LO in bovine PMNL = biological target: T1, 5-LO in bovine PMNL (Bos taurus, UniProt F1MQ78); assay: Inhibition of 5-lipoxygenase (5-HETE and LTB4 biosynthesis) in Ca-ionophore-stimulated bovine PMNL; type: cell-based
T1 construct: The purified PMNLs were suspended at a concentration of; endogenous in cells; host or cells: polymorphonuclear leukocytes isolated from bovine blood
T1 sequence (F1MQ78 1-674): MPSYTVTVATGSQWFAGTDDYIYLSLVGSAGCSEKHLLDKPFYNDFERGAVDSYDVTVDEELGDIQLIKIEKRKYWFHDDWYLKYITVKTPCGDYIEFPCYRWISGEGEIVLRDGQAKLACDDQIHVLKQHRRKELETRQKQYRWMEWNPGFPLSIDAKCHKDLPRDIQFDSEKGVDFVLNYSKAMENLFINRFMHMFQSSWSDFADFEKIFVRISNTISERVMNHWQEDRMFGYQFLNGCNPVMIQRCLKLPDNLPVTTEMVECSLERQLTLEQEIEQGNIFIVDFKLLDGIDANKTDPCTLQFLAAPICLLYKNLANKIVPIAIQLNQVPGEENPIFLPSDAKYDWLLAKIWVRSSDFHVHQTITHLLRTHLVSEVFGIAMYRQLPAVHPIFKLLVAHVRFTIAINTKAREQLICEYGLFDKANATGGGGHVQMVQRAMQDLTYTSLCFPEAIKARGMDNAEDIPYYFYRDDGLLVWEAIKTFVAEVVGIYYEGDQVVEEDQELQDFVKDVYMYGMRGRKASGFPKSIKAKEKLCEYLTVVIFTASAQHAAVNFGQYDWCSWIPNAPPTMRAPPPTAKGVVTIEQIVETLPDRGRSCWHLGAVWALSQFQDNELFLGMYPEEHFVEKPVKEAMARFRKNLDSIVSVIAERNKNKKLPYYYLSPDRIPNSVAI
Experimental: Briefly, PMNLs were prepared from sodium EDTA-anticoagulated bovine blood, essentially as described by Walstra, P. et al., (Biochem. Biophys. Acta, 795:499-503 (1984)). Contaminating platelets were removed by repeated centrifugations at 100 g for 20 minutes. […] Cell counts were conducted with a Sysmex micro cell counter CC-130. Preincubation was performed with 2.4 ml of the suspension and 10 μl of a DMSO stock solution of test compounds at the desired concentrations in phosphate buffered saline (PBS) or vehicle control (DMSO at final concentration of 0.4%) for 15 minutes at 37° C. in a shaking water bath at 50 rpm. […] The incubation mixture was held on ice bath for 20 minutes and then centrifuged at 4000 g for 5 minutes at 0° C. The supernatant was diluted with 5 ml of water and passed through a prewashed (10 ml of methanol and 5 ml of water, sequentially) octadecylsilane reversed phase cartridge (Baker). The eicosanoids were eluted with 3 ml of methanol, diluted with 3 ml of water and subjected to reversed phase HPLC analysis using a 250×4 mm column packed with Nucleosil C18 (7 μm particles; Bischoff, Leonberg, Germany). The isocratic elution conditions of LTB4 were tetrahydrofuran (THF)/methanol/water/acetic acid (25+30+45+0.1), adjusted to pH 5.5 with concentrated NH3, at a flow rate of 0.9 ml/min (Kontron 420 pump), monitored at 280 nm with a Kontron 735 LC UV detector. 5-HETE was monitored at 232 nm using methanol/water/acetic acid (77+23+0.1), pH 5.5 and a flow rate 1.0 ml/min. Data were recorded on a MacLab data acquisition system (WissTech, Germany) and analysis was performed using the application Peaks on an Apple Macintosh Quadra 700 computer. Integrated areas of the peaks were compared to a PGB2 internal standard and to external standards of authentic samples. Molar absorption coefficients of Samuelsson et al., Borgeat, P. and B. Samuelsson, (Proc. Natl. Acad. Sci. USA, 76:2148-2152 (1979)), were used for making calculations. Inhibition was calculated by a comparison of the mean value of test compound (n=3) with control (n=6-8) activity: (1-test compound/control)×100.
See Walstra, P. et al., Biochem Biophys. Acta, 795:499-503 (1984); and Dannhardt et al. J. Pharm. Pharmacol., 44:419-424 (1992). […] (Schroder, J. M., J. Invest. Dermatol., 87:624-629 (1986); Tanzer, et al., Arch. Pharm. (Weinheim), 324:841-846 (1991)).

[7] = Inhibition of AAPH-induced lipid peroxidation in bovine brain phospholipid liposomes; type: biochemical; conditions: AAPH-induced; bovine brain phospholipid liposomes; N = 3 or more; read-out: LPO IC50 (inhibition of lipid peroxidation)
Experimental: Phospholipids were prepared essentially as described by Gutteridge, J. M. C., (Anal. Biochem., 82: 76-82 (1977)). Bovine brain tissue was cooled on ice, freed from blood vessels and washed repeatedly with 0.15 M NaCl, pH 7.4. The tissue was cut into pieces and then macerated with an ultra-turrax, passed through a fine-meshed sieve, and extracted four times with four times the volume of acetone. The extraction mixture was filtered by suction to remove the acetone, the residue dried under vacuum, and then repeatedly extracted with petroleum ether (40-60) using twice the volume of the original brain homogenate. The combined extracts were filtered, dried at 45° C., and dissolved in ether (one fifth the original brain volume). The mixture was treated with five times the volume of acetone, and the resulting precipitate was collected by suction-filtration, dried and stored under N2 at -20° C. in the dark. Bovine brain phospholipids were weighed into glass tubes and shaken in a vortex mixer (Heidolph) in the presence of five small glass beads (.phi. 4 mm) for 1 minute. The phospholipids were suspended in 0.15 M NaCl, pH 7.4, to a final concentration of 5 mg/ml. The mixture was purged with N2 for 1 minute and vigorously dispersed in a vortex mixer for 5 minutes. The liposomes were allowed to swell for 1 hour at 4° C., and vesicles with a mean size of 1-10 μm were obtained according to the method of Bangham, et al., (J. Mol. Biol., 13:238-252 (1965). The liposomes were stimulated with the azo initiator 2 2'-azobis (2-amidinopropane) hydrochloride according to the method of Gutteridge, J. M. C., (Anal. Biochem. 82:76-82 (1977)).
The following reagents were added to the glass tubes containing stimulating bovine brain phospholipid piposomes in the order and at the final concentrations listed: 0.3 ml HK2 PO4 --KOH buffer, pH 7.4 (30 mM), 0.29 ml double distilled H2 O, 0.2 ml liposomes (1 mg/ml), 0.2 ml FeCl3.H2 O (0.1 mM), 0.01 ml 2-substituted anthracenone compound of the invention (variable concentrations).
Appropriate blanks and controls using the vehicle (acetone) were conducted. The final reaction volumes were standardized to 1.0 ml. The reaction mixtures were incubated for 1 hour at 37° C. in a shaking water bath. […] of 20% (w/v) BHT, 0.5 ml 25% (w/v) HCl and 0.5 ml of 1% 2-thiobarbituric acid were added and the samples were heated at 100° C. for 15 minutes and then cooled in an ice bath (5 minutes). 2 ml of 1-butanol were added and the mixtures were vigorously shaken in a vortex mixer (Heidolph) for 15 seconds. The organic layer was separated by centrifugation at 3000 rpm (15 minutes) and absorbance at 532 nm was measured against butanol.

O=C1c2c(O)cccc2Cc2cccc(O)c21 [anthralin]
IC50 (HaCaT cells [1]): 0.5 to 0.7 µM
DD (deoxyribose degradation, malondialdehyde released) [2]: 2.89 ± 0.14 μmol of MDA/mmol
sensitivity of HaCaT cells to antiproliferative action (HaCaT cells [3]): extremely sensitive target for the antiproliferative action of anthralin
IC50 [4]: 7 to 74 µM
lipid peroxidation in the presence of iron [5]: enhancement of anthralin-induced lipid peroxidation in the presence of iron
side effects of anthralin therapy [6]: increased inflammation and irritation of non-effected skin surrounding treated lesions

CCCCOc1ccc(CC(=O)NO)cc1 [bufexamac, reference compound]
IC50 (5-LO in bovine PMNL; N = 3 or more): > 30 µM
IC50 (5-LO in bovine PMNL; comparison with compounds of the invention, read-out: IC50): > 30 µM
IC50 (HaCaT cells [1]): > 5 µM
IC50 [7]: > 200 µM
